Laboratory results reported in ChEMBL document CHEMBL1201862, “PubChem BioAssay data set” (2004).
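96-well plates; 48 h exposure; 5 concentrations. Endpoints by linear interpolation between flanking doses. Not reached: highest tested concentration assigned. At the GI50, growth is halved.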 Active and inactive are the calls of the source. Rule as the data show it: active = GI50 up to about 1.1 µM and inactive = higher.

What was measured:
Experiment in all cases: growth of human tumour cells (NCI), 48 h
[1] = tested on: 786-0
[2] = tested on: LOX IMVI
[3] = tested on: HOP-92
[4] = tested on: HCT-15
[5] = tested on: SF-268
[6] = tested on: SR
[7] = tested on: SF-295
[8] = tested on: HCT-116
[9] = tested on: T47D
[10] = tested on: MOLT-4
[11] = tested on: U-251
[12] = tested on: HT-29
[13] = tested on: SNB-19
[14] = tested on: HOP-62
[15] = tested on: SK-MEL-28
[16] = tested on: SF-539
[17] = tested on: Malme-3M
[18] = tested on: NCI/ADR-RES
[19] = tested on: NCI-H23
[20] = tested on: HCC 2998

| SMILES | GI50 [1] | GI50 [2] | GI50 [3] | GI50 [4] | GI50 [5] | GI50 [6] | GI50 [7] | GI50 [8] | GI50 [9] | GI50 [10] | GI50 [11] | GI50 [12] | GI50 [13] | GI50 [14] | GI50 [15] | GI50 [16] | GI50 [17] | GI50 [18] | GI50 [19] | GI50 [20] |
| --- | --- | --- | --- | --- | --- | --- | --- | --- | --- | --- | --- | --- | --- | --- | --- | --- | --- | --- | --- | --- |
| Cn1c(=O)c2nc(CCS)[nH]c2n(C)c1=O | 51.2 µM (inactive) | > 100 µM (inactive) | > 100 µM (inactive) | > 100 µM | 35.6 µM (inactive) | > 100 µM (inactive) | > 100 µM (inactive) | > 100 µM (inactive) | > 100 µM (inactive) | > 100 µM (inactive) | > 100 µM (inactive) | > 100 µM (inactive) | > 100 µM (inactive) | 54.3 µM (inactive) | > 100 µM (inactive) | 74.8 µM (inactive) | > 100 µM (inactive) | > 100 µM (inactive) | > 100 µM (inactive) |  |
| CCOC(=O)c1c2c(n(Cc3ccccc3)c1C)C(=O)C(=O)c1ccccc1-2 | 0.56 µM (active) | 0.174 µM (active) | 0.802 µM (active) | 0.366 µM | 0.415 µM (active) |  | 0.497 µM (active) | 0.235 µM (active) | 0.579 µM (active) | 0.17 µM (active) | 0.263 µM (active) | 0.989 µM (active) | 0.315 µM (active) | 0.238 µM (active) | 0.177 µM (active) | 0.24 µM (active) | 0.0968 µM (active) | 0.466 µM (active) | 0.231 µM (active) | 0.56 µM (active) |
| CN1C(=O)C(O)CC1c1ccc(C(F)(F)F)cc1 (centres undefined) | > 100 µM (inactive) | > 100 µM (inactive) | > 100 µM (inactive) | > 100 µM | > 100 µM (inactive) |  | > 100 µM (inactive) | > 100 µM (inactive) | > 100 µM (inactive) | > 100 µM (inactive) | > 100 µM (inactive) | > 100 µM (inactive) | > 100 µM (inactive) | > 100 µM (inactive) | > 100 µM (inactive) | > 100 µM (inactive) | > 100 µM (inactive) | > 100 µM (inactive) | > 100 µM (inactive) | > 100 µM (inactive) |
| OCN(CO)c1ccc2c(c1)Cc1cc(F)ccc1-2 | 30.1 µM (inactive) | 17.9 µM (inactive) |  | 19.2 µM | 23.8 µM (inactive) | 22.6 µM (inactive) | 15.3 µM (inactive) | 39.5 µM (inactive) | 17.8 µM (inactive) | 25.2 µM (inactive) | 17.9 µM (inactive) | 14.8 µM (inactive) | 17.9 µM (inactive) | 44.1 µM (inactive) | 24 µM (inactive) | 22.3 µM (inactive) | 18.1 µM (inactive) | 20.2 µM (inactive) | 33.3 µM (inactive) |  |
| CC1(C23CC4CC(CC(C4)C2)C3)n2c(=O)n(-c3ccccc3)c(=O)n2C1(C)C12CC3CC(CC(C3)C1)C2 (centres undefined) |  |  | > 100 µM (inactive) | > 100 µM | > 100 µM (inactive) | > 100 µM (inactive) | > 100 µM (inactive) |  | > 100 µM (inactive) | > 100 µM (inactive) | > 100 µM (inactive) | > 100 µM (inactive) | > 100 µM (inactive) | > 100 µM (inactive) | > 100 µM (inactive) | > 100 µM (inactive) |  | > 100 µM (inactive) | > 100 µM (inactive) |  |
| CC1(C)OC(C(C)(C)O)C(C(C)(C)O)O1 (centres undefined) | > 100 µM (inactive) | > 100 µM (inactive) |  | > 100 µM | > 100 µM (inactive) | > 100 µM (inactive) | > 100 µM (inactive) | > 100 µM (inactive) | > 100 µM (inactive) | > 100 µM (inactive) | > 100 µM (inactive) | > 100 µM (inactive) | > 100 µM (inactive) | > 100 µM (inactive) | > 100 µM (inactive) | > 100 µM (inactive) | > 100 µM (inactive) | > 100 µM (inactive) | > 100 µM (inactive) | > 100 µM (inactive) |
| Clc1c(Cl)c(Cl)c2nn(C3CCCO3)nc2c1Cl (centres undefined) | 70.3 µM (inactive) |  |  |  | 46.6 µM (inactive) | 52.6 µM (inactive) | 39.4 µM (inactive) | 50.6 µM (inactive) | 37 µM (inactive) | 30.5 µM (inactive) | 41.4 µM (inactive) | 49.1 µM (inactive) | 26.7 µM (inactive) | 28.1 µM (inactive) |  | 86.9 µM (inactive) | 39.4 µM (inactive) | 42.8 µM (inactive) | 37.8 µM (inactive) | 91 µM (inactive) |
| Oc1ccc(Cl)cc1-c1cc(-c2ccccc2)nc(S)n1 | 26.3 µM (inactive) | > 100 µM (inactive) | 19.2 µM (inactive) | 94 µM | 27.3 µM (inactive) |  | 28.6 µM (inactive) | 28.8 µM (inactive) | > 100 µM (inactive) | > 100 µM (inactive) | 17.4 µM (inactive) | > 100 µM (inactive) | 42.9 µM (inactive) | 22.6 µM (inactive) | > 100 µM (inactive) | 42.6 µM (inactive) | > 100 µM (inactive) | 97.9 µM (inactive) | 88.5 µM (inactive) | > 100 µM (inactive) |
